Test results from ChEMBL document CHEMBL1201861, “Genomics of Drug Sensitity in Cancer screening data, Wellcome Trust Sanger Institute”.

What was measured:
Experiment in all cases: cells
COR-L88 = type: functional, cell-based; settings: Homo sapiens;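 also: growth inhibition of COR-L88 cells, read out with a cell viability assay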
Description: SANGER: Inhibition of human COR-L88 cell growth in a cell viability assay.

ChaGo-K-1 = type: functional, cell-based; settings: Homo sapiens;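 also: growth inhibition of ChaGo-K-1 cells, read out with a cell viability assay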
Description: SANGER: Inhibition of human ChaGo-K-1 cell growth in a cell viability assay.

D-247MG = type: functional, cell-based, Homo sapiens; settings: Homo sapiens, D-247MG
Description: SANGER: Inhibition of human D-247MG cell growth in a cell viability assay.

DU-4475 = type: functional, cell-based; settings: Homo sapiens
Description: SANGER: Inhibition of human DU-4475 cell growth in a cell viability assay.

Daoy = type: functional, cell-based, Homo sapiens; settings: Homo sapiens, Daoy;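 also: daoy cell growth inhibition, read out as cell viability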
Description: SANGER: Inhibition of human Daoy cell growth in a cell viability assay.

DoTc2-4510 = type: functional, cell-based, Homo sapiens; settings: Homo sapiens, DoTc2-4510
ES6 = type: functional, cell-based, Homo sapiens; settings: Homo sapiens, ES6;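 also: growth inhibition of human ES6 cells, read out with a cell viability assay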
Description: SANGER: Inhibition of human ES6 cell growth in a cell viability assay.

ES8 = type: functional, cell-based, Homo sapiens; settings: Homo sapiens, ES8;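 also: growth inhibition of human ES8 cells, read out with a cell viability assay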
Description: SANGER: Inhibition of human ES8 cell growth in a cell viability assay.

GAK = type: functional, cell-based, Homo sapiens; settings: Homo sapiens, GAK;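 also: cell growth inhibition read out by a cell viability assay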
Description: SANGER: Inhibition of human GAK cell growth in a cell viability assay.

H4 = type: functional, cell-based; settings: Homo sapiens
Description: SANGER: Inhibition of human H4 cell growth in a cell viability assay.

HCC70 = type: functional, cell-based, Homo sapiens; settings: Homo sapiens, HCC70;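 also: cell viability assay measuring how strongly the compound suppresses proliferation of HCC70 cells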
Description: SANGER: Inhibition of human HCC70 cell growth in a cell viability assay.

HCE-T = type: functional, cell-based, Homo sapiens; settings: Homo sapiens, HCE-T;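 also: cell viability assay read-out, reporting inhibition of HCE-T cell growth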
Description: SANGER: Inhibition of human HCE-T cell growth in a cell viability assay.

HL-60 = type: functional, cell-based; settings: Homo sapiens;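 also: growth inhibition of human HL-60 cells, read out with a cell viability assay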
Description: SANGER: Inhibition of human HL-60 cell growth in a cell viability assay.

HOS = type: functional, cell-based, Homo sapiens; settings: Homo sapiens, HOS;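 also: growth inhibition of human HOS cells, read out with a cell viability assay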
Description: SANGER: Inhibition of human HOS cell growth in a cell viability assay.

KM12 = type: functional, cell-based, Homo sapiens; settings: Homo sapiens, KM12;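 also: KM12 cell growth inhibition, read out with a cell viability assay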
Description: SANGER: Inhibition of human KM12 cell growth in a cell viability assay.

KNS-42 = type: functional, cell-based, Homo sapiens; settings: Homo sapiens, KNS-42;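 also: growth inhibition of KNS-42 cells, read out with a cell viability assay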
Description: SANGER: Inhibition of human KNS-42 cell growth in a cell viability assay.

KNS-81-FD = type: functional, cell-based, Homo sapiens; settings: Homo sapiens, KNS-81-FD;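 also: growth inhibition of KNS-81-FD cells, read out with a cell viability assay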
Description: SANGER: Inhibition of human KNS-81-FD cell growth in a cell viability assay.

L-363 = type: functional, cell-based; settings: Homo sapiens
Description: SANGER: Inhibition of human L-363 cell growth in a cell viability assay.

LCLC-97TM1 = type: functional, cell-based, Homo sapiens; settings: Homo sapiens, LCLC-97TM1;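 also: cell viability assay measuring growth inhibition of human LCLC-97TM1 cells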
Description: SANGER: Inhibition of human LCLC-97TM1 cell growth in a cell viability assay.

LS-123 = type: functional, cell-based, Homo sapiens; settings: Homo sapiens, LS-123
Description: SANGER: Inhibition of human LS-123 cell growth in a cell viability assay.

MC-IXC = type: functional, cell-based, Homo sapiens; settings: Homo sapiens, MC-IXC;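 also: growth inhibition of MC-IXC cells, read out with a cell viability assay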
Description: SANGER: Inhibition of human MC-IXC cell growth in a cell viability assay.

MDA-MB-157 = type: functional, cell-based, Homo sapiens; settings: Homo sapiens, MDA-MB-157
Description: SANGER: Inhibition of human MDA-MB-157 cell growth in a cell viability assay.

MDA-MB-453 = type: functional, cell-based, Homo sapiens; settings: Homo sapiens, MDA-MB-453
Description: SANGER: Inhibition of human MDA-MB-453 cell growth in a cell viability assay.

MKN-28 = type: functional, cell-based, Homo sapiens; settings: Homo sapiens, MKN-28;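 also: cell viability assay read-out, IC50 reflects suppression of growth of human MKN-28 cells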
Description: SANGER: Inhibition of human MKN28 cell growth in a cell viability assay.

ML-2 = type: functional, cell-based; settings: Homo sapiens;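 also: growth inhibition of ML-2 cells, measured with a cell viability readout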
Description: SANGER: Inhibition of human ML-2 cell growth in a cell viability assay.

NCI-H1304 = type: functional, cell-based; settings: Homo sapiens;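 also: growth inhibition of the cancer cell line, measured in a cell viability assay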
Description: SANGER: Inhibition of human NCI-H1304 cell growth in a cell viability assay.

NCI-H2170 = type: functional, cell-based, Homo sapiens; settings: Homo sapiens, NCI-H2170;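 also: cell viability assay measuring growth inhibition of human NCI-H2170 cancer cells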
Description: SANGER: Inhibition of human NCI-H2170 cell growth in a cell viability assay.

NCI-H2405 = type: functional, cell-based, Homo sapiens; settings: Homo sapiens, NCI-H2405;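 also: growth inhibition of the human cell line, read out with a cell viability assay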
Description: SANGER: Inhibition of human NCI-H2405 cell growth in a cell viability assay.

NCI-H727 = type: functional, cell-based, Homo sapiens; settings: Homo sapiens, NCI-H727;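 also: growth inhibition of human NCI-H727 cells, read out with a cell viability assay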
Description: SANGER: Inhibition of human NCI-H727 cell growth in a cell viability assay.

NCI-H747 = type: functional, cell-based; settings: Homo sapiens;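 also: growth inhibition of human NCI-H747 cells, read out by a cell viability assay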
Description: SANGER: Inhibition of human NCI-H747 cell growth in a cell viability assay.

NUGC-3 = type: functional, cell-based, Homo sapiens; settings: Homo sapiens, NUGC-3;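 also: growth inhibition of human NUGC-3 cells, read out with a cell viability assay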
Description: SANGER: Inhibition of human NUGC-3 cell growth in a cell viability assay.

RCC10RGB = type: functional, cell-based, Homo sapiens; settings: Homo sapiens, RCC10RGB;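 also: growth inhibition of human RCC10RGB cells, read out by a cell viability assay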
Description: SANGER: Inhibition of human RCC10RGB cell growth in a cell viability assay.

RD = type: functional, cell-based, Homo sapiens; settings: Homo sapiens, RD
Description: SANGER: Inhibition of human RD cell growth in a cell viability assay.

RXF 393 = type: functional, cell-based; settings: Homo sapiens;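 also: growth inhibition of human RXF 393 cells, read out with a cell viability assay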
Description: SANGER: Inhibition of human RXF393 cell growth in a cell viability assay.

SCH = type: functional, cell-based, Homo sapiens; settings: Homo sapiens, SCH;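 also: growth inhibition of human SCH cells, read out in a cell viability assay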
Description: SANGER: Inhibition of human SCH cell growth in a cell viability assay.

SF-295 = type: functional, cell-based, Homo sapiens; settings: Homo sapiens, SF-295; read-out: IC50;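 also: growth inhibition of SF-295 cells, read out with a cell viability assay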
Description: SANGER: Inhibition of human SF295 cell growth in a cell viability assay.

SHP77 = type: functional, cell-based, Homo sapiens, SHP-77; settings: Homo sapiens, SHP77;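 also: growth inhibition of human SHP-77 cells measured by a cell viability assay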
Description: SANGER: Inhibition of human SHP-77 cell growth in a cell viability assay.

SK-LMS-1 = type: functional, cell-based, Homo sapiens; settings: Homo sapiens, SK-LMS-1;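 also: growth inhibition of human SK-LMS-1 cells, read out with a cell viability assay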
Description: SANGER: Inhibition of human SK-LMS-1 cell growth in a cell viability assay.

SK-UT-1 = type: functional, cell-based, Homo sapiens; settings: Homo sapiens, SK-UT-1;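 also: growth inhibition of SK-UT-1 cells, measured by a cell viability assay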
Description: SANGER: Inhibition of human SK-UT-1 cell growth in a cell viability assay.

SW1463 = type: functional, cell-based, Homo sapiens; settings: Homo sapiens, SW1463;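 also: growth inhibition of SW1463 cells, determined with a cell viability assay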
Description: SANGER: Inhibition of human SW1463 cell growth in a cell viability assay.

TE-1 = type: functional, cell-based, Homo sapiens; settings: Homo sapiens, TE-1
Description: SANGER: Inhibition of human TE-1 cell growth in a cell viability assay.

A-427 = type: functional, cell-based, Homo sapiens; settings: Homo sapiens, A-427;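 also: growth inhibition of human A-427 cells, read out by a cell viability assay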
Description: SANGER: Inhibition of human A427 cell growth in a cell viability assay.

A704 = type: functional, cell-based, Homo sapiens; settings: Homo sapiens, A704;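 also: growth inhibition of human A704 cells, read out with a cell viability assay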
Description: SANGER: Inhibition of human A704 cell growth in a cell viability assay.

AM-38 = type: functional, cell-based, Homo sapiens; settings: Homo sapiens, AM-38;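 also: growth inhibition of AM-38 cells of human origin, read out by a cell viability assay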
Description: SANGER: Inhibition of human AM-38 cell growth in a cell viability assay.

BB65-RCC = type: functional, cell-based, Homo sapiens; settings: Homo sapiens, BB65-RCC;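 also: growth inhibition of the cell line, measured with a cell viability assay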
Description: SANGER: Inhibition of human BB65-RCC cell growth in a cell viability assay.

CAL-12T = type: functional, cell-based, Homo sapiens; settings: Homo sapiens, CAL-12T;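 also: growth inhibition of human CAL-12T cells, read out with a cell viability assay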
Description: SANGER: Inhibition of human CAL-12T cell growth in a cell viability assay.

CAL-33 = type: functional, cell-based, Homo sapiens; settings: Homo sapiens, CAL-33;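 also: growth inhibition of CAL-33 cells, read out with a cell viability assay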
Description: SANGER: Inhibition of human CAL-33 cell growth in a cell viability assay.

CAL-85-1 = type: functional, cell-based; settings: Homo sapiens;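 also: growth inhibition of human CAL-85-1 cells, read out with a cell viability assay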
Description: SANGER: Inhibition of human CAL-85-1 cell growth in a cell viability assay.

TE-10 = type: functional, cell-based, Homo sapiens; settings: Homo sapiens, TE-10;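 also: growth inhibition of TE-10 cells, measured by a cell viability assay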
Description: SANGER: Inhibition of human TE-10 cell growth in a cell viability assay.

WM-115 = type: functional, cell-based, Homo sapiens; settings: Homo sapiens, WM-115
Description: SANGER: Inhibition of human WM-115 cell growth in a cell viability assay.

no-11 = type: functional, cell-based, Homo sapiens; settings: Homo sapiens;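 also: growth inhibition of human NO-11 cells, read out with a cell viability assay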
Description: SANGER: Inhibition of human no-11 cell growth in a cell viability assay.

COLO-320-HSR = type: functional, cell-based; settings: Homo sapiens;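 also: growth inhibition of COLO-320-HSR cells, determined with a cell viability assay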
Description: SANGER: Inhibition of human COLO-320-HSR cell growth in a cell viability assay.

SMILES: Cc1cnc(-c2cnc(NCCNc3ccc(C#N)cn3)nc2-c2ccc(Cl)cc2Cl)[nH]1 [LADUVIGLUSIB]
- IC50 (COR-L88): > 2560 nM
- IC50 (ChaGo-K-1): > 2560 nM
- IC50 (D-247MG): 949 nM
- IC50 (DU-4475): > 2560 nM
- IC50 (Daoy): > 2560 nM
- IC50 (DoTc2-4510): > 2560 nM
- IC50 (ES6): > 2560 nM
- IC50 (ES8): > 2560 nM
- IC50 (GAK): > 2560 nM
- IC50 (H4): > 2560 nM
- IC50 (HCC70): > 2560 nM
- IC50 (HCE-T): > 2560 nM
- IC50 (HL-60): > 2560 nM
- IC50 (HOS): > 2560 nM
- IC50 (KM12): > 2560 nM
- IC50 (KNS-42): > 2560 nM
- IC50 (KNS-81-FD): > 2560 nM
- IC50 (L-363): > 2560 nM
- IC50 (LCLC-97TM1): > 2560 nM
- IC50 (LS-123): > 2560 nM
- IC50 (MC-IXC): > 2560 nM
- IC50 (MDA-MB-157): > 2560 nM
- IC50 (MDA-MB-453): > 2560 nM
- IC50 (MKN-28): > 2560 nM
- IC50 (ML-2): > 2560 nM
- IC50 (NCI-H1304): > 2560 nM
- IC50 (NCI-H2170): > 2560 nM
- IC50 (NCI-H2405): > 2560 nM
- IC50 (NCI-H727): > 2560 nM
- IC50 (NCI-H747): > 2560 nM
- IC50 (NUGC-3): > 2560 nM
- IC50 (RCC10RGB): > 2560 nM
- IC50 (RD): > 2560 nM
- IC50 (RXF 393): > 2560 nM
- IC50 (SCH): > 2560 nM
- IC50 (SF-295): > 2560 nM
- IC50 (SHP77): > 2560 nM
- IC50 (SK-LMS-1): > 2560 nM
- IC50 (SK-UT-1): > 2560 nM
- IC50 (SW1463): > 2560 nM
- IC50 (TE-1): > 2560 nM
- IC50 (A-427): > 2560 nM
- IC50 (A704): > 2560 nM
- IC50 (AM-38): > 2560 nM
- IC50 (BB65-RCC): > 2560 nM
- IC50 (CAL-12T): > 2560 nM
- IC50 (CAL-33): > 2560 nM
- IC50 (CAL-85-1): > 2560 nM
- IC50 (TE-10): > 2560 nM
- IC50 (WM-115): > 2560 nM
- IC50 (no-11): > 2560 nM
- IC50 (COLO-320-HSR): > 2560 nM

SMILES: CN(c1ncccc1CNc1nc(Nc2ccc3c(c2)CC(=O)N3)ncc1C(F)(F)F)S(C)(=O)=O [PF-00562271]
- IC50 (COR-L88): > 2560 nM
- IC50 (ChaGo-K-1): > 2560 nM
- IC50 (D-247MG): > 2560 nM
- IC50 (DU-4475): 2150 nM
- IC50 (Daoy): > 2560 nM
- IC50 (DoTc2-4510): > 2560 nM
- IC50 (ES6): > 2560 nM
- IC50 (ES8): > 2560 nM
- IC50 (GAK): > 2560 nM
- IC50 (H4): > 2560 nM
- IC50 (HCC70): > 2560 nM
- IC50 (HCE-T): > 2560 nM
- IC50 (HL-60): > 2560 nM
- IC50 (HOS): > 2560 nM
- IC50 (KM12): 386 nM
- IC50 (KNS-42): > 2560 nM
- IC50 (KNS-81-FD): > 2560 nM
- IC50 (L-363): > 2560 nM
- IC50 (LCLC-97TM1): > 2560 nM
- IC50 (LS-123): > 2560 nM
- IC50 (MC-IXC): > 2560 nM
- IC50 (MDA-MB-157): > 2560 nM
- IC50 (MDA-MB-453): > 2560 nM
- IC50 (MKN-28): > 2560 nM
- IC50 (ML-2): 1670 nM
- IC50 (NCI-H1304): > 2560 nM
- IC50 (NCI-H2170): > 2560 nM
- IC50 (NCI-H2405): > 2560 nM
- IC50 (NCI-H727): > 2560 nM
- IC50 (NCI-H747): > 2560 nM
- IC50 (NUGC-3): > 2560 nM
- IC50 (RCC10RGB): 2330 nM
- IC50 (RD): > 2560 nM
- IC50 (RXF 393): > 2560 nM
- IC50 (SCH): > 2560 nM
- IC50 (SF-295): > 2560 nM
- IC50 (SHP77): > 2560 nM
- IC50 (SK-LMS-1): > 2560 nM
- IC50 (SK-UT-1): 1450 nM
- IC50 (SW1463): > 2560 nM
- IC50 (TE-1): > 2560 nM
- IC50 (A-427): > 2560 nM
- IC50 (A704): > 2560 nM
- IC50 (AM-38): > 2560 nM
- IC50 (BB65-RCC): > 2560 nM
- IC50 (CAL-12T): > 2560 nM
- IC50 (CAL-33): 1130 nM
- IC50 (CAL-85-1): 1800 nM
- IC50 (TE-10): > 2560 nM
- IC50 (WM-115): > 2560 nM
- IC50 (no-11): > 2560 nM
- IC50 (COLO-320-HSR): > 2560 nM

SMILES: C=CCNC1=C2C[C@@H](C)C[C@H](OC)[C@H](O)[C@@H](C)/C=C(\C)[C@H](OC(N)=O)[C@@H](OC)/C=C\C=C(/C)C(=O)NC(=CC1=O)C2=O [TANESPIMYCIN]
- IC50 (COR-L88): 49.1 nM
- IC50 (ChaGo-K-1): 317 nM
- IC50 (D-247MG): 94.5 nM
- IC50 (DU-4475): 22.6 nM
- IC50 (Daoy): 317 nM
- IC50 (DoTc2-4510): 208 nM
- IC50 (ES6): > 1000 nM
- IC50 (ES8): 308 nM
- IC50 (GAK): 136 nM
- IC50 (H4): 30.9 nM
- IC50 (HCC70): 921 nM
- IC50 (HCE-T): 386 nM
- IC50 (HL-60): > 1000 nM
- IC50 (HOS): 417 nM
- IC50 (KM12): 63.5 nM
- IC50 (KNS-42): > 1000 nM
- IC50 (KNS-81-FD): 184 nM
- IC50 (L-363): 82.1 nM
- IC50 (LCLC-97TM1): 87.3 nM
- IC50 (LS-123): > 1000 nM
- IC50 (MC-IXC): > 1000 nM
- IC50 (MDA-MB-157): 181 nM
- IC50 (MDA-MB-453): 672 nM
- IC50 (MKN-28): 666 nM
- IC50 (ML-2): 231 nM
- IC50 (NCI-H1304): > 1000 nM
- IC50 (NCI-H2170): 175 nM
- IC50 (NCI-H2405): 346 nM
- IC50 (NCI-H727): > 1000 nM
- IC50 (NCI-H747): 242 nM
- IC50 (NUGC-3): 145 nM
- IC50 (RCC10RGB): > 1000 nM
- IC50 (RD): 191 nM
- IC50 (RXF 393): 120 nM
- IC50 (SCH): > 1000 nM
- IC50 (SF-295): 64.5 nM
- IC50 (SHP77): 905 nM
- IC50 (SK-LMS-1): > 1000 nM
- IC50 (SK-UT-1): 31.8 nM
- IC50 (SW1463): > 1000 nM
- IC50 (TE-1): 92 nM
- IC50 (A-427): 420 nM
- IC50 (A704): > 1000 nM
- IC50 (AM-38): 208 nM
- IC50 (BB65-RCC): 106 nM
- IC50 (CAL-12T): 428 nM
- IC50 (CAL-33): > 1000 nM
- IC50 (CAL-85-1): > 1000 nM
- IC50 (TE-10): 414 nM
- IC50 (WM-115): 37.6 nM
- IC50 (no-11): 370 nM
- IC50 (COLO-320-HSR): > 1000 nM
